The results in this text go back to patent publication US20250171432A1, “COMPOUNDS AND METHODS OF USE” (Tango Therapeutics, Inc., priority 2022, published 2025).

What all share (type): cell-based
In experiment [1] the test system is SDMA (PRMT5 activity) in HAP1 MTAP-intact cell line. Nature of the experiment: SDMA in-cell western assay, HAP1 MTAP-intact. Particulars: Homo sapiens, HAP1, 24 h, SDMA in-cell western, HAP1 MTAP-intact cells, 24 hours compound incubation. How it is done: (§1) The SAM-cooperative PRMT5 inhibitor, GSK3326595, was sourced from SelleckChem and maintained as a 10 mM DMSO stock. All test compounds are maintained as 10 mM DMSO stocks
(§2) On Day 0, MTAP-intact or MTAP-deleted cells are seeded in a 384-well plate, and incubated in a humidified, 5% CO2 tissue culture incubator for 16-24 hours. On Day 1, the test compounds are dispensed to wells at defined concentrations using a Tecan D300e digital dispenser (n=4), and the volume of DMSO is normalized to highest class volume. Each plate includes wells dosed with defined concentrations of GSK33226595 as a plate control. The compounds are incubated with cells for 24 hours in a humidified, 5% CO2 tissue culture incubator.
(§3) On Day 2, the compound-treated cells are fixed with a final concentration of 4% formaldehyde. The cells are then washed/permeabilized with 1×PBS+0.1% Triton X-100, and then blocked with 5% goat serum/1×TBS.
(§4) The cells are washed with 1×PBS+0.1% Triton X-100, and then washed again with ddH20. The plates are then imaged using a NIR fluorescent imager (LiCor Odyssey).
(§5) For data analysis, the SDMA signal is normalized to the DRAQ5 signal. Assay background is determined by the signal from wells treated with 1 μM GSK3326595, and subtracted from every well. The data are plotted as % of the DMSO control wells for the MTAP-intact and the MTAP-deleted cell lines independently, and fitted to the 4-parameter logistic (4-PL) Hill equation with maximal effect constrained to 0. The fit was performed using GraphPad Prism or the default IC50 fitting procedure in Dotmatics Studies 5.4 as part of a customized data analysis protocol.

Experiment [2] relates to HAP1 MTAP-deleted cell line. As to the kind of experiment: Viability assay (CellTiter-Glo), HAP1 MTAP-deleted. The following applies: Homo sapiens, 168 h, HAP1 MTAP-deleted cells, 7 days. How it is done:
All test compounds are maintained as 10 mM DMSO stocks.
On Day 0, MTAP-intact and MTAP-deleted cells are seeded in a 96-well plate, and incubated in a humidified, 5 or 10% CO2 tissue culture incubator for 16-24 hours. On Day 1, the test compounds are dispensed to wells at defined concentrations using a Tecan D300e digital dispenser (n=3), and the volume of DMSO is normalized to highest class volume (0.2%). The compound-treated plates are incubated for 7 days in a humidified, 5 or 10% CO2 tissue culture incubator.
On Day 7, the plates are removed from the tissue culture incubator and allowed to equilibrate to room temperature. Then either a ½% volume CellTiter-Glo Luminescent Cell Viability Assay reagent (Promega G7572) is added to each well, or the media is removed from every well and a 1:3 dilution of CellTiter-Glo 2.0 Cell Viability Assay reagent (Promega G9241) in 1×PBS is added. Ten minutes after addition, the luminescent signal is detected by an Envision plate reader. The data are plotted as % of the DMSO control wells for the MTAP-intact and the MTAP-deleted cell lines independently, and fitted to the 4-parameter logistic (4-PL) Hill equation with maximal effect constrained to 0. The fit was performed using GraphPad Prism or the default IC50 fitting procedure in Dotmatics Studies 5.4 as part of a customized data analysis protocol.
On the technique in general: Cellular ATP, detected with luciferase, serves as a proxy for viable cell number.

Experiment [3] relates to SDMA (PRMT5 activity) in HAP1 MTAP-deleted cell line. As to the kind of experiment: SDMA in-cell western assay, HAP1 MTAP-deleted. The following applies: for IC50 / IC90: Homo sapiens, SDMA in-cell western, HAP1 MTAP-deleted cells, 24 hours compound incubation; for Hap1 MTAP intact/deleted ratio: ratio of SDMA IC50 in HAP1 MTAP-intact to HAP1 MTAP-deleted cell line. How it is done: as §1, §2, §3, §4, §5

As a reminder, the IC50 is the point on the concentration scale where inhibition reaches its midpoint. Low readings indicate greater potency, high ones weaker potency. Broadly, the IC90 is the point of the concentration-response curve where the effect stands at 90%. Read a low IC90 as an effect from little substance. Consider `CCc1cc(NC(=O)C(=O)N2C[C@@H](C)CC[C@@H]2c2ccc3sc(CC4CCN(C)CC4)nc3c2)cnc1N` [Compound 41, N-(6-amino-5-ethylpyridin-3-yl)-2-((2R,5S)-5-methyl-2-(2-((1-methylpiperidin-4-yl)methyl)benzo[d]thiazol-5-yl)piperidin-1-yl)-2-oxoacetamide], for which the IC50 in experiment [1] fell in the range of 0.005 to 0.05 µM. This molecule also showed a half-maximal inhibitory concentration (IC50) in experiment [2] of under 0.1 µM. For the same molecule, in experiment [3], the IC50 is under 0.005 µM, the IC90 is under 0.075 µM and the “Hap1 MTAP intact/deleted ratio” value was “B (“B” indicates an IC50 ratio greater than or equal to 15 fold but lower than 30 fold)”.
For `COc1ncc(NC(=O)C(=O)N2C[C@@H](C)CC[C@@H]2c2ccc3sc(C45CC(N(C)C)(C4)C5)nc3c2)cc1C(N)=O` [Compound 86] the same measures were over 0.05 µM, under 0.1 µM, 0.005 to 0.05 µM, over 0.125 µM and “A (“A” indicates an IC50 ratio greater than or equal to 30 fold)”.
For `CCc1cc(NC(=O)C(=O)N2C[C@@H](C)CC[C@@H]2c2ccc3sc([C@@H]4C[C@H](C)N(C)C4)nc3c2)cnc1N` (racemic) [Compound 16, N-(6-amino-5-ethyl-3-pyridyl)-2-oxo-2-[(2R,5S)-5-methyl-2-[2-[rac-(3S,5R)-1,5-dimethylpyrrolidin-3-yl]-1,3-benzothiazol-5-yl]-1-piperidyl]acetamide] the same measures were over 0.05 µM, under 0.1 µM, under 0.005 µM, under 0.075 µM and “A (“A” indicates an IC50 ratio greater than or equal to 30 fold)”.
For `COc1ncc(NC(=O)C(=O)N2C[C@@H](C)CC[C@@H]2c2cccc(OC[C@@H]3CCCN3C)c2)cc1C(N)=O` [Compound 26, 2-methoxy-5-(2-((2R,5S)-5-methyl-2-(3-(((S)-1-methylpyrrolidin-2-yl)methoxy)phenyl)piperidin-1-yl)-2-oxoacetamido)nicotinamide] the same measures were over 0.05 µM, 0.1 to 1 µM, 0.005 to 0.05 µM, over 0.125 µM and “A (“A” indicates an IC50 ratio greater than or equal to 30 fold)”.
Molecule `CCc1cc(NC(=O)C(=O)N2C[C@@H](C)CC[C@@H]2c2ccc3sc(C(C)CN4CCCC4)nc3c2)cnc1N` (single isomer, unassigned) [Compound 2] displayed an IC50 in experiment [1] of 0.005 to 0.05 µM. In experiment [2], this molecule gave an IC50 of under 0.1 µM. Further, in experiment [3], the IC50 is under 0.005 µM, the IC90 is under 0.075 µM and the “Hap1 MTAP intact/deleted ratio” value is recorded as “B (“B” indicates an IC50 ratio greater than or equal to 15 fold but lower than 30 fold)”.
Taken in the same sequence, the figures for `CCc1cc(NC(=O)C(=O)N2C[C@@H](C)CC[C@@H]2c2ccc3sc(C4CC(C5CN(C)C5)C4)nc3c2)cnc1N` (stereo partly drawn) [Compound 100, N-(6-amino-5-ethylpyridin-3-yl)-2-((2R,5S)-5-methyl-2-(2-(3-(1-methylazetidin-3-yl)cyclobutyl)benzo[d]thiazol-5-yl)piperidin-1-yl)-2-oxoacetamide] were 0.005 to 0.05 µM, under 0.1 µM, under 0.005 µM, under 0.075 µM and “B (“B” indicates an IC50 ratio greater than or equal to 15 fold but lower than 30 fold)”.
Taken in the same sequence, the figures for `CCc1cc(NC(=O)C(=O)N2C[C@@H](C)CC[C@@H]2c2ccc3sc([C@H]4C[C@@H]5CN(C)C[C@@H]5C4)nc3c2)cnc1N` (single isomer, unassigned) [Compound 33] were over 0.05 µM, under 0.1 µM, under 0.005 µM, under 0.075 µM and “A (“A” indicates an IC50 ratio greater than or equal to 30 fold)”.
For `CCc1cc(NC(=O)C(=O)N2C[C@@H](C)CC[C@@H]2c2ccc3cn(C4CCN(C)C(C)(C)C4)nc3c2)cnc1N` (stereo partly drawn) [Compound 109, N-(6-amino-5-ethyl-3-pyridyl)-2-oxo-2-[(2R,5S)-5-methyl-2-[2-(1,2,2-trimethyl-4-piperidyl)indazol-6-yl]-1-piperidyl]acetamide] the same measures were 0.005 to 0.05 µM, under 0.1 µM, under 0.005 µM, under 0.075 µM and “B (“B” indicates an IC50 ratio greater than or equal to 15 fold but lower than 30 fold)”.
In experiment [1], `CCc1cc(NC(=O)C(=O)N2C[C@@H](C)CC[C@@H]2c2ccc3sc([C@H]4CN5CC[C@@H]4C5)nc3c2)cnc1N` (racemic) [Compound 21, 2-((2R,5S)-2-(2-(1-azabicyclo[2.2.1]heptan-3-yl)benzo[d]thiazol-5-yl)-5-methylpiperidin-1-yl)-N-(6-amino-5-ethylpyridin-3-yl)-2-oxoacetamide] returned an IC50 of 0.005 to 0.05 µM. The concentration for half-maximal inhibition (IC50) in experiment [2] was under 0.1 µM. Further, in experiment [3], the IC50 was under 0.005 µM, the IC90 was under 0.075 µM and the “Hap1 MTAP intact/deleted ratio” value is reported as “C (“C” indicates an IC50 ratio of less than 15 fold)”.
Consider `COc1ncc(NC(=O)C(=O)N2C[C@@H](C)CC[C@@H]2c2ccc3sc([C@H]4CN(C)CCO4)nc3c2)cc1C(N)=O` [Compound 124], for which the IC50 in experiment [1] was over 0.05 µM. Also, the IC50 in experiment [2] lay in the range of 0.1 to 1 µM. In experiment [3], the IC50 was in the range of 0.005 to 0.05 µM, the IC90 was over 0.125 µM and the “Hap1 MTAP intact/deleted ratio” value is recorded as “A (“A” indicates an IC50 ratio greater than or equal to 30 fold)”.
For `CCc1cc(NC(=O)C(=O)N2C[C@@H](C)CC[C@@H]2c2ccc3ccc(C#N)nc3c2)cnc1N` [Compound 32, N-(6-amino-5-ethylpyridin-3-yl)-2-((2R,5S)-2-(2-cyanoquinolin-7-yl)-5-methylpiperidin-1-yl)-2-oxoacetamide] the same measures were over 0.05 µM, 0.1 to 1 µM, 0.005 to 0.05 µM, over 0.125 µM and “A (“A” indicates an IC50 ratio greater than or equal to 30 fold)”.
As for `[2H][13C]([2H])([2H])N1CCC(c2nc3cc([C@H]4CC[C@H](C)CN4C(=O)C(=O)Nc4cnc(N)c(CC)c4)ccc3s2)CC1` [Compound 129, N-(6-amino-5-ethyl-3-pyridyl)-2-oxo-2-[(2R,5S)-5-methyl-2-[2-[1-(trideuterio(1^13C)methyl)-4-piperidyl]-1,3-benzothiazol-5-yl]-1-piperidyl]acetamide], in experiment [2], the IC50 is under 0.1 µM.
Same read-out and setting: the result for `[2H]C([2H])([2H])N1CCC(c2nc3cc([C@H]4CC[C@H](C)CN4C(=O)C(=O)Nc4cnc(OC)c(C(N)=O)c4)ccc3s2)CC1` [Compound 5, 2-methoxy-5-[[2-oxo-2-[(2R,5S)-5-methyl-2-[2-[1-(trideuteriomethyl)-4-piperidyl]-1,3-benzothiazol-5-yl]-1-piperidyl]acetyl]amino]pyridine-3-carboxamide] reads under 0.1 µM.
In turn, `COc1ncc(NC(=O)C(=O)N2C[C@@H](C)CC[C@@H]2c2ccc3sc(C[C@H](C)N(C)C)nc3c2)cc1C(N)=O` [Compound 98, 5-(2-((2R,5S)-2-(2-((S)-2-(dimethylamino)propyl)benzo[d]thiazol-5-yl)-5-methylpiperidin-1-yl)-2-oxoacetamido)-2-methoxynicotinamide] displayed an IC50 in experiment [1] of over 0.05 µM. Besides, in experiment [3], the IC50 is under 0.005 µM, the IC90 is under 0.075 µM and the “Hap1 MTAP intact/deleted ratio” value was “A (“A” indicates an IC50 ratio greater than or equal to 30 fold)”.
